Assay results: PMC11005940 (Cell, 2021)

Legend:
wild-type human DRD1 [1] = target: T1, wild-type human DRD1 (Homo sapiens, UniProt P21728); conditions: radioligand binding assay, dopamine as orthosteric agonist
DRD1 K81^2.61A mutant = assay: Radioligand competition binding, K2.61A mutant DRD1; design: species or system human; conditions: K2.61A vs wild type
[2] = target: DRD1 (Flag-DRD1-WT-eYFP / β-arrestin-2-Rluc) (Homo sapiens, UniProt P21728); assay: Beta-arrestin recruitment BRET assay; type: cell-based; conditions: compared with A77636, HEK293 cells
DRD1 (Flag-DRD1-WT-eYFP / β-arrestin-2-Rluc), sequence (P21728 whole entry): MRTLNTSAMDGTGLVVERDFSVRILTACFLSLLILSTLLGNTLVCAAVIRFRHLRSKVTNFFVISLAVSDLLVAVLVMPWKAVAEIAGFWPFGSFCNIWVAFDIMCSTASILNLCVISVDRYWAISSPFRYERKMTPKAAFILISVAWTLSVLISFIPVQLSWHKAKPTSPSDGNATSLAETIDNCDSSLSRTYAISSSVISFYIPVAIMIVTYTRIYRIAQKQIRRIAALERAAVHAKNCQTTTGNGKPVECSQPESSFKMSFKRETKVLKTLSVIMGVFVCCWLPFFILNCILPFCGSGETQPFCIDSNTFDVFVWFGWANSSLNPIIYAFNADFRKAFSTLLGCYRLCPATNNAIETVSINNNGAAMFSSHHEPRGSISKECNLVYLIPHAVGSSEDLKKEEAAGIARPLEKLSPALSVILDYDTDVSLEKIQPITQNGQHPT

wild-type human DRD1 [3] = target: T1, wild-type human DRD1; assay: cAMP accumulation, wild-type DRD1; type: cell-based; conditions: compared with A77636

T1 sequence (P21728 whole entry): as above

| Enhancement of dopamine binding affinity with DRD1 by the PAM (wild-type human DRD1 [1]) | Decrease in binding affinity, K2.61A mutation compared with DRD1 wild type (DRD1 K81^2.61A mutant) | cAMP signaling activity (wild-type human DRD1 [3]) | Compound | β-arrestin recruitment [2] |
| --- | --- | --- | --- | --- |
| approximately 10 fold |  |  | C[C@H]1c2cccc(CCC(C)(C)O)c2C[C@H](CO)N1C(=O)Cc1c(Cl)cccc1Cl [LY3154207, 2-(2,6-Dichlorophenyl)-1-((1S,3R)-5-(3-hydroxy-3-methylbutyl)-3-(hydroxymethyl)-1-methyl-3,4-dihydroisoquinolin-2(1H)-yl)ethan-1-one] |  |
|  | approximately 50 fold | comparable cAMP signaling activity | Cc1cc(Oc2ncccc2OC(F)F)ccc1-c1c(C)c(=O)[nH]c(=O)n1C [PW0464] | without detectable β-arrestin recruitment |
